Measurements from paper PMC7587601, “A Rose Extract Protects the Skin against Stress Mediators: A Potential Role of Olfactory Receptors” (Molecules, 2020).

Legend:
Type in all cases: cell-based, human
Details in all cases: epinephrine 56 nM alone, 9 days
OR2AG2 protein = OR2AG2 protein expression in skin explants (immunohistochemistry)
Procedure: (§1) For immunohistochemical staining on human skin, 5-μm-thick sections were made. The same primary antibodies were used (anti-OR10A6 (1:200; Abcam, #ab129837), anti-OR11H4 (1:200; ThermoFisher, #PA5-562685), anti-OR2AG2 (1:100; ThermoFisher, #PA5-538166)). […] Image processing was performed using ImageJ 2.0 software. […]
(§2) Human skin explants were recovered from the abdominal tissue of a person and kept in a culture medium at 37 °C, under 5% CO2. […] Each condition was evaluated on 3 different explants and compared to control (untreated explant). […]
(§3) mounting medium (Santa Cruz, UltraCruz Mounting Medium # sc-24941). […] Cells were observed using a Zeiss microscope and images were analyzed with ImageJ 2.0 software. […]
(§4) observations were realized using an Olympus BX43 microscope. […] Quantification of the proteins of interest (stained purple) was performed through microscopic observation and image analysis. Results were expressed as a percentage of untreated control explants. The relative change (Δ%) between the two tested conditions was also calculated. […]
(§5) AlexaFluor 546 (ThermoFisher, #A11035) goat anti-rabbit IgG secondary antibody, diluted in 1:800 in PBS 1X with 1% BSA, for 1h at room temperature. […] The green channel was used to quantify the fluorescence resulting from OR labelling in the same region. […]

OR2AG2 mRNA = OR2AG2 mRNA expression in skin explants (RT-qPCR)
Procedure: (§6) For NHEKs, total RNA was isolated and purified using RNeasy Mini Kit (Qiagen, Hilden, Germany, #74104) following the manufacturer’s protocol. For RNA extraction from skin sections, Trizol (ThermoFisher, Waltham, MA, USA, #15596026) was used following the manufacturer’s protocol. Purity was determined with commercial Agilent kit RNA 6000 Nano Kit (Agilent, Santa Clara, CA, USA, #5067-1511) using Agilent 2100 Bioanalyzer according to the manufacturer’s recommendations and the concentration was quantified with a Nanodrop 2000c (ThermoFisher, Waltham, MA, USA). Real-time quantitative polymerase chain reaction (qRT-PCR) was run in triplicate using TaqMan™ Fast Advanced Master Mix (ThermoFisher, Waltham, MA, USA, #4444557) and gene Expression Assay transcripts (ThermoFisher, Waltham, MA, USA) on the AriaMx Real-time PCR System (Agilent, Santa Clara, CA, USA) according to the manufacturer’s recommendations. Real-time quantification plots and Ct values were collected and stored in AriaMx software (version 2.1). […]
as §2
(§7) System (Agilent) according to the manufacturer’s recommendations. Real-time quantification plots and Ct values were collected and stored in AriaMx software. […]

OR11H4 protein = OR11H4 protein expression in skin explants (immunohistochemistry)
Procedure: as §1, §2, §3, §4, §5

G6PDH = experiment: Epinephrine-induced stress model in skin explants, G6PDH immunostaining
Procedure: (§8) To study the potential involvement of ORs in skin response to chronic stress, an ex vivo epinephrine-induced stress model was designed. Three different markers, known to increase under stress conditions, were measured to estimate the stress response of skin (Figure 3A). G6PDH was used as a marker for cell metabolism, loricrin for cell differentiation, and γH2AX for DNA damage.
(§9) For immunohistochemical staining on human skin, 5-μm-thick sections were made. The same primary antibodies were used (anti-OR10A6 (1:200; Abcam, #ab129837), anti-OR11H4 (1:200; ThermoFisher, #PA5-562685), anti-OR2AG2 (1:100; ThermoFisher, #PA5-538166)). […] Image processing was performed using ImageJ 2.0 software. For primary G6PDH (1:100 dilution; Sigma Aldrich, St. Louis, MO, USA, #HPA000247), loricrine (1:1600 dilution; Covance, Princeton, NJ, USA, #PRB-145P), γH2AX (1:800; Abcam, Cambridge, UK, #ab26350) antibodies staining, tissue cryosections were […] and immunostaining was performed using an automated slide processing system (Autostainer Dako, Agilent, Santa Clara, CA, USA). […] Microscopical observations were realized using an Olympus BX43 microscope. Photographs were digitized with a numeric DP72 Olympus camera and CellD storing software (Waltham, MA, USA). The detailed protocols were described in the supplementary materials. […]

OR10A6 protein = OR10A6 protein expression in skin explants (immunohistochemistry)
Procedure: as §1, §2, §3, §4, §5

OR10A6 mRNA = OR10A6 mRNA expression in skin explants (RT-qPCR)
Procedure: as §6, §2, §7

loricrin = experiment: Epinephrine-induced stress model in skin explants, loricrin immunostaining
Procedure: as §8, §9

OR11H4 mRNA = OR11H4 mRNA expression in skin explants (RT-qPCR)
Procedure: as §6, §2, §7

γH2AX = experiment: Epinephrine-induced stress model in skin explants, γH2AX immunostaining
Procedure: as §8, §9

CNC[C@H](O)c1ccc(O)c(O)c1 [epinephrine]
OR2AG2 protein expression, relative intensity staining (OR2AG2 protein): 0.81 ± 0.15 | OR2AG2 mRNA level, fold change (OR2AG2 mRNA): 0.51 ± 0.3 | OR11H4 protein expression (OR11H4 protein): No change | G6PDH expression, fold change (G6PDH): 1.26 ± 0.19 | OR10A6 protein expression, relative intensity staining (OR10A6 protein): 0.77 ± 0.34 | OR10A6 mRNA level, fold change (OR10A6 mRNA): 0.45 ± 0.2 | loricrin expression, fold change (loricrin): 2.3 ± 1.17 | OR11H4 mRNA level, fold change (OR11H4 mRNA): 0.52 ± 0.2 | γH2AX expression, fold change (γH2AX): 1.7 ± 0.47
